Laboratory results from US20110059953A1, “COMPOUNDS FOR USE IN STABILIZING P53 MUTANTS” (priority 2008, published 2011).

What was measured:
[1] = biological target: T1, T-p53C-Y220C (Homo sapiens, UniProt P04637, M133L/N239Y/N268D/V203A/Y220C); test: Melting temperature of T-p53C-Y220C, method not stated; assay type: binding
T1 construct: For all other experiments, the DNA coding for residues 94-312 of T-p53C was inserted into a modified pET24a(+) vector; 6xHis tag + B. stearothermophilus dihydrolipoyl acetyltransferase lipoyl domain (aa 1-85) + TEV site (N, cleaved yes); made in house; host or cells: Escherichia coli BL21 (DE3) or C41 (DE3)

[2] = biological target: T1, T-p53C-Y220C; test: 1H/15N-HSQC NMR chemical shift binding (KD NMR)
Method: Uniformly ^15N-labelled core domains of T-p53C-Y220C was expressed and purified according to the above described protocol. The low molecular-weight compounds were dissolved in d^6-DMSO to make 10 mM stock solutions. To screen compound mixtures by chemical shift mapping, 10 μl of each of 4 different compounds were mixed together and 25 μl of this mixture was added to 25 μl of D2O and 500 μl of 70 μM T-p53C-Y220C (in 25 mM NaPi, 150 mM NaCl and 5 mM DTT, pH 7.2 ). […] NMR samples were freshly prepared and kept sealed under argon after degassing by repeated cycles of pumping the NMR tube under low pressure (while gently tapping the tube) and returning to atmospheric pressure using a stream of argon gas. This was done to maintain sample stability.
Using Bruker's TopSpin 2.0 software, the number of complex points in t1 was doubled by forward complex linear prediction and shifted squared sine bell window functions were applied to both dimensions prior to zero filling and Fourier transformation. A digital resolution of 2.0 Hz/point in the ^1H frequency dimension and 4.7 Hz/point in the ^15N frequency dimension was used. […] An in-house script was used to analyse chemical shift differences and map these onto PDB protein structures.
For certain compounds an array of different concentrations were used to derive KD values (KD NMR) by fitting a saturation binding equation (Δδ=c+a*[L]/(KD+[L])) to the concentration-dependent chemical shift changes of the relevant shifting peaks.

[3] = biological target: T1, T-p53C-Y220C; test: Thermal denaturation using capillary DSC; assay type: binding; conditions: for ΔTm: increase in Tm on adding 250 μM of the test compound, 20 μM protein
Method: Differential Scanning calorimetry (DSC) was used to probe the stabilising effect of the ligands on […]. For a reversible two-state system, the melting temperature, Tm, is the transition temperature where the folded and unfolded states are equally populated.
DSC experiments were performed using a Microcal VP-Capillary DSC instrument (Microcal, Amherst, Mass.) with an active cell volume of ˜125 μl. Protein samples were buffer exchanged into 25 mM NaPi, pH 7.2, 150 mM NaCl, 5 mM DTT. This buffer + the respective concentration of ligand/DMSO was used for baseline scans, so that the only difference between sample and reference cell or sample cell in the measurement and both cells in the baseline scan is the presence of the protein. A final concentration of 20 μM T-p53C-Y220C was used. A pressure of 2.5 bars (nitrogen) was applied to the cell. Temperatures from 10 to 85° C. were scanned at a rate of 250° C./h, with a filtering period of 4 seconds and feedback gain/mode set at medium. Data were analysed with ORIGIN software (Microcal).
The following tables show the results of the thermal denaturation studies using capillary DSC, where ΔTm is the increase in Tm on adding 250 μM of the test compound. The Dunnett significance test (P) value given is the calculated probability that the change in Tm is insignificant.

[4] = biological target: T1, T-p53C-Y220C; test: Thermal denaturation using fluorescence (Sypro Orange); assay type: binding; conditions: further studies on compounds described above; 10 μM protein
Method: This was by an adaption of the classical procedure (e.g. ref A6). Thermal unfolding was monitored by the binding of the dye Sypro Orange (5×) using a Rotor-gene 6000 (Corbett Life Science) at 270 K/h in 25 mM NaPi, 150 mM NaCl and 5 mM DTT, pH 7.2 with a protein concentration of 10 μM.
(§1) Where listed, S.E. is the calculated standard error.
as §1

[5] = biological target: T1, T-p53C-Y220C; test: Equilibrium sedimentation analytical ultracentrifugation (AUC) binding
Text: Analytical centrifugation studies the distribution of molecules under gravity force. In equilibrium sedimentation experiment the solute concentrates at the bottom of the cell and forms a concentration gradient. The steepness of this gradient depends on the molecular weight of the solute, the heavier the molecule the steeper the gradient. Small molecules have a molecular weight around 500 Da, and p53 core domain is large protein molecule of 24.5 kDa. Under the experimental conditions chosen, small molecules form a very shallow, practically negligible gradient, while p53 presents a very well defined sedimentation profile. […] By monitoring the distribution of the small molecule via absorbance at wavelengths above 300 nm (the ligands must absorb light in this spectral range for the method to work) so that signal is not affected by the absorbance of the protein (e.g., 310, 340 and 380 nm), it is possible to determine if the small molecule binds to the protein, and in many cases measure the dissociation constant. […]
Equilibrium sedimentation experiments were performed on a Beckman XL-I ultracentrifuge using Ti-50 rotor and 6-sector cells. at speeds of 30,000 and 40,000 rpm at 10° C. Up to 21 samples were analysed simultaneously. […] The samples contained ligand at concentration of 15 μM-40 μM, with absorbance of 0.3-0.5 at one of the selected wavelengths and 100 μM T-p53-Y220C.

[6] = KD (@ 20° C.) μM, further NMR studies, some revised values

SMILES	effect on melting temperature [1]	Kd [2, 6]	Kd ([2]; KD (@ 20° C.), 1H/15N-HSQC)	Kd ([3]; at 316-318 K, read-out: approximate KD from DSC stabilization fit)	ΔTm [3]	ΔTm (° C.) [4]	Kd [5]
NC(=O)c1c[nH]c2ccccc12 [1H-indole-3-carboxamide]	raise its melting temperature						
CCn1c2ccccc2c2cc(CNC)ccc21 [PK083]		114 µM	167 µM	~140 µM	0.75 °C	0.76 °C	170 µM
CCn1c2ccccc2c2cc(C3CC4CN(C)C(=O)C45CCCN35)ccc21 (stereo not shown) [PK226]		113 µM			1.11 °C	1.0 °C	
